{
  "source": "patent US9446039B2",
  "about": "“Aminoheteroaryl compounds as MTH1 inhibitors” (CEMM—FORSCHUNGSZENTRUM FÜR MOLEKULARE MEDIZIN GMBH, priority 2012, dated 2016)",
  "key": {"[1]": {"molecular_target": "SW480 colon carcinoma cells lysate proteins (Homo sapiens, UniProt P23528)", "sequence (P23528 whole entry)": "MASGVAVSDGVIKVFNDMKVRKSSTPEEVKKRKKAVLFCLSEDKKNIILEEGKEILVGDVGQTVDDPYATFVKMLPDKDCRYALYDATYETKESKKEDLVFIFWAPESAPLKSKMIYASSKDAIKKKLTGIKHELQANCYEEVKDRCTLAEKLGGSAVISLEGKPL", "format": "binding", "details": "PreyGene CFL1"}, "[2]": {"molecular_target": "SW480 colon carcinoma cells lysate proteins (Homo sapiens, UniProt P12814)", "sequence (P12814 whole entry)": "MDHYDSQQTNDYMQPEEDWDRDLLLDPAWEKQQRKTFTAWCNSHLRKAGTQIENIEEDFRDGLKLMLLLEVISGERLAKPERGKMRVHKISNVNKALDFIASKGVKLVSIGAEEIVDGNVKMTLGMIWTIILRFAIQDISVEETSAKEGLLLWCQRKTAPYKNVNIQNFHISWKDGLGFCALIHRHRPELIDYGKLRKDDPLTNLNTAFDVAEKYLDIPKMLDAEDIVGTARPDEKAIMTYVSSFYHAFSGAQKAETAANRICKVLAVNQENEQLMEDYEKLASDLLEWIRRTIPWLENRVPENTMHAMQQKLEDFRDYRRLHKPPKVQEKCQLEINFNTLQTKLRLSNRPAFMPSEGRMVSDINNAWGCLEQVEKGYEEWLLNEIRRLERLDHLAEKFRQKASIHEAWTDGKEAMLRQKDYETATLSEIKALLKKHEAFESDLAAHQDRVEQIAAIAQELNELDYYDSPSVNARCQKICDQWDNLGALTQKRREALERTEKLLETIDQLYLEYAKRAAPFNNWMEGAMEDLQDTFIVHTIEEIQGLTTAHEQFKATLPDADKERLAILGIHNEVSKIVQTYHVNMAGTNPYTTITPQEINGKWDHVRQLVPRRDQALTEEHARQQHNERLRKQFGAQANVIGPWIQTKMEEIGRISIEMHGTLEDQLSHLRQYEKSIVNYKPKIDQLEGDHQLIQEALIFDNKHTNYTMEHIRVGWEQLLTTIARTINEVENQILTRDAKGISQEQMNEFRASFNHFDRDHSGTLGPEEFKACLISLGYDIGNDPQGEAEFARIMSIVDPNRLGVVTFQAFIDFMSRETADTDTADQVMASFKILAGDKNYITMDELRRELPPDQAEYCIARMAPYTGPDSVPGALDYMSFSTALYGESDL", "format": "binding", "details": "PreyGene ACTN1"}, "[3]": {"molecular_target": "SW480 colon carcinoma cells lysate proteins (Homo sapiens, UniProt O00571)", "sequence (O00571 whole entry)": "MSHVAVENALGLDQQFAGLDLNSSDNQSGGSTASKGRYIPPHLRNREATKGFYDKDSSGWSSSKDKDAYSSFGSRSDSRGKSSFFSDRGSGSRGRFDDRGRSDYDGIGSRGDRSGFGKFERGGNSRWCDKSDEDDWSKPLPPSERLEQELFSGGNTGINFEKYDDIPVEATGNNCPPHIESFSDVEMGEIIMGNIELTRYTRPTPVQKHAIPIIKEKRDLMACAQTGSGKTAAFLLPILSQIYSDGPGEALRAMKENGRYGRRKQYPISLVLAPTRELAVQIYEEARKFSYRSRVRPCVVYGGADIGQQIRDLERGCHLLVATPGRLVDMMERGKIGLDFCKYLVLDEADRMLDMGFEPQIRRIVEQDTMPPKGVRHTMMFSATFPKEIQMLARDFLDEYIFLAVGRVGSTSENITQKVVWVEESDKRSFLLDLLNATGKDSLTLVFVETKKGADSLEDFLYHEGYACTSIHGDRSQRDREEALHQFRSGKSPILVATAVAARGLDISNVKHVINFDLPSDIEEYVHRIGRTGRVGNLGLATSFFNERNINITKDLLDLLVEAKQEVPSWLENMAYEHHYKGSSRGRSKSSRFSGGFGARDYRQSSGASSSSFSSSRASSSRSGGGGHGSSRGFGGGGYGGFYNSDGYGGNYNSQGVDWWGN", "format": "binding", "details": "PreyGene DDX3X"}, "[4]": {"molecular_target": "SW480 colon carcinoma cells lysate proteins (Homo sapiens, UniProt P15559)", "sequence (P15559 whole entry)": "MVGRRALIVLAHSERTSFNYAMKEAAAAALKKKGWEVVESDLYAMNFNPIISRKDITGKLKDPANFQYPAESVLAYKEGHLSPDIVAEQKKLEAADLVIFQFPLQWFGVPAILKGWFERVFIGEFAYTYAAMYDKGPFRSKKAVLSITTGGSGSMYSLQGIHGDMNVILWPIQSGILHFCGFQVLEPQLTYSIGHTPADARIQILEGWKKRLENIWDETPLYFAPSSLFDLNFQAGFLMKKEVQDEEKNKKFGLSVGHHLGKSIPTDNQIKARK", "format": "binding", "details": "PreyGene NQO1"}, "[5]": {"molecular_target": "T1, SW480 colon carcinoma cells lysate proteins (Homo sapiens, UniProt P22234)", "T1 sequence (P22234 1-425)": "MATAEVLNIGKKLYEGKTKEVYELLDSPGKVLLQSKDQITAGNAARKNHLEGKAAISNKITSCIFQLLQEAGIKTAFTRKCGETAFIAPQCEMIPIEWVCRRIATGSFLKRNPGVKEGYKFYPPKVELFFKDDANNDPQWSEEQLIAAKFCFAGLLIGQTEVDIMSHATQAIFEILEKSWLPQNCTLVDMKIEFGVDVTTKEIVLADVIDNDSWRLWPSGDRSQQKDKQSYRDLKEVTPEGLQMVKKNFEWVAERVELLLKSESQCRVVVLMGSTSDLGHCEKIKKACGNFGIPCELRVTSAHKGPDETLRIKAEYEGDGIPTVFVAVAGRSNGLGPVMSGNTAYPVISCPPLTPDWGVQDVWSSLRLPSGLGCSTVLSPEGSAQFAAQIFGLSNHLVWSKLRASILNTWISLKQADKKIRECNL", "format": "binding", "details": "PreyGene PAICS"}, "[6]": {"molecular_target": "T2, SW480 colon carcinoma cells lysate proteins (Homo sapiens, UniProt Q15102)", "T2 sequence (Q15102 1-231)": "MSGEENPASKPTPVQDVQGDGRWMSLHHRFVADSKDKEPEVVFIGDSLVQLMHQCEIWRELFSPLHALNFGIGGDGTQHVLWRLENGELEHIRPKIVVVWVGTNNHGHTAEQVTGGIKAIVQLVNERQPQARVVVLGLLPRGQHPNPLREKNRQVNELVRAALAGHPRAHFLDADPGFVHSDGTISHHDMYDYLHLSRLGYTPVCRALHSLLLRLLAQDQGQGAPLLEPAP", "format": "binding", "details": "PreyGene PAFAH1B3; SW480 cells"}, "[7]": {"molecular_target": "SW480 colon carcinoma cells lysate proteins (Homo sapiens, UniProt P26447)", "sequence (P26447 whole entry)": "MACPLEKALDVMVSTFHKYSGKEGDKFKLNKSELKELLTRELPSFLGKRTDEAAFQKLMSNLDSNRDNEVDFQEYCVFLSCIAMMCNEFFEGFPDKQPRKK", "format": "binding", "details": "PreyGene S100A4"}, "[8]": {"molecular_target": "SW480 colon carcinoma cells lysate proteins (Homo sapiens, UniProt Q9Y265)", "sequence (Q9Y265 whole entry)": "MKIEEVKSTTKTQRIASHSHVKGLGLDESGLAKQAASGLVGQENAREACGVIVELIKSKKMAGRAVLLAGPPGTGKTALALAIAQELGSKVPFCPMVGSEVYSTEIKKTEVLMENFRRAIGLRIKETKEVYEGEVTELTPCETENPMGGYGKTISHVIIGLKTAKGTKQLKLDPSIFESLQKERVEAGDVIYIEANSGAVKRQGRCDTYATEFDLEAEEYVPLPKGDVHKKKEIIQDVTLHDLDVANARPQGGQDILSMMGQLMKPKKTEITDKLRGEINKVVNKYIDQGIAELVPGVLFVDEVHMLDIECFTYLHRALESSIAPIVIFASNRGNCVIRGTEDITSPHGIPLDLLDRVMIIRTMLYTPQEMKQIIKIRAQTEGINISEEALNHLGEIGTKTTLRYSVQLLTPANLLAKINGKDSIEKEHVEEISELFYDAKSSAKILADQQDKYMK", "format": "binding", "details": "PreyGene RUVBL1"}, "[9]": {"molecular_target": "SW480 colon carcinoma cells lysate proteins (Homo sapiens, UniProt Q9UHV9)", "sequence (Q9UHV9 whole entry)": "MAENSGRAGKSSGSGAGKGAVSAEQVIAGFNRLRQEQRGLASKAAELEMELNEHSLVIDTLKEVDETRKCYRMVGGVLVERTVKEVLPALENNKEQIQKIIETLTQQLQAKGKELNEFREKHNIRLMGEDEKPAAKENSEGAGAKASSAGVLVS", "format": "binding", "details": "PreyGene PFDN2"}, "[10]": {"molecular_target": "SW480 colon carcinoma cells lysate proteins (Homo sapiens, UniProt Q92598)", "sequence (Q92598 whole entry)": "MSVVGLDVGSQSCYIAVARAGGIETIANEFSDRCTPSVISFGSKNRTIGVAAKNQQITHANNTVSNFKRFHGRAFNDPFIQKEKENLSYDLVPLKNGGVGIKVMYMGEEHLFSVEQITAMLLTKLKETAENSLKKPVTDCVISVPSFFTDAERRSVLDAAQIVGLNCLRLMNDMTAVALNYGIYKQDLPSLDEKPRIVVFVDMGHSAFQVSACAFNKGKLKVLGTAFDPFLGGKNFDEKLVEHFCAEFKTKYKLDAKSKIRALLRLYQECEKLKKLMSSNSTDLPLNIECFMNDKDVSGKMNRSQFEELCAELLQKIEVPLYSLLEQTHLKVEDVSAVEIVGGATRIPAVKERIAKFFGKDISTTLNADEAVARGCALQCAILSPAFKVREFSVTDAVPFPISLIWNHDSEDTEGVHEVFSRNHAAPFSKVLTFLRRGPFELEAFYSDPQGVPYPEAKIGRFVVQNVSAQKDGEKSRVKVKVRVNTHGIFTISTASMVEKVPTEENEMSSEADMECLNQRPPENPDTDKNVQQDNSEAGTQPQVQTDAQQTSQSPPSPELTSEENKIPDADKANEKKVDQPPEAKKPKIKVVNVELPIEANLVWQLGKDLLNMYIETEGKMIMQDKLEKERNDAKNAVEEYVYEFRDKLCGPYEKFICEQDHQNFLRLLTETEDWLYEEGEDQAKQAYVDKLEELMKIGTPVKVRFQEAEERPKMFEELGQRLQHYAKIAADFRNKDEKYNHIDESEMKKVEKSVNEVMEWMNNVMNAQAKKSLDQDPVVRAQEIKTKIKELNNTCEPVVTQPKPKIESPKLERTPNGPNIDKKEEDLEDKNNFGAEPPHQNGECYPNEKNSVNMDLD", "format": "binding", "details": "PreyGene HSPH1"}, "[11]": {"molecular_target": "SW480 colon carcinoma cells lysate proteins (Homo sapiens, UniProt Q14974)", "sequence (Q14974 whole entry)": "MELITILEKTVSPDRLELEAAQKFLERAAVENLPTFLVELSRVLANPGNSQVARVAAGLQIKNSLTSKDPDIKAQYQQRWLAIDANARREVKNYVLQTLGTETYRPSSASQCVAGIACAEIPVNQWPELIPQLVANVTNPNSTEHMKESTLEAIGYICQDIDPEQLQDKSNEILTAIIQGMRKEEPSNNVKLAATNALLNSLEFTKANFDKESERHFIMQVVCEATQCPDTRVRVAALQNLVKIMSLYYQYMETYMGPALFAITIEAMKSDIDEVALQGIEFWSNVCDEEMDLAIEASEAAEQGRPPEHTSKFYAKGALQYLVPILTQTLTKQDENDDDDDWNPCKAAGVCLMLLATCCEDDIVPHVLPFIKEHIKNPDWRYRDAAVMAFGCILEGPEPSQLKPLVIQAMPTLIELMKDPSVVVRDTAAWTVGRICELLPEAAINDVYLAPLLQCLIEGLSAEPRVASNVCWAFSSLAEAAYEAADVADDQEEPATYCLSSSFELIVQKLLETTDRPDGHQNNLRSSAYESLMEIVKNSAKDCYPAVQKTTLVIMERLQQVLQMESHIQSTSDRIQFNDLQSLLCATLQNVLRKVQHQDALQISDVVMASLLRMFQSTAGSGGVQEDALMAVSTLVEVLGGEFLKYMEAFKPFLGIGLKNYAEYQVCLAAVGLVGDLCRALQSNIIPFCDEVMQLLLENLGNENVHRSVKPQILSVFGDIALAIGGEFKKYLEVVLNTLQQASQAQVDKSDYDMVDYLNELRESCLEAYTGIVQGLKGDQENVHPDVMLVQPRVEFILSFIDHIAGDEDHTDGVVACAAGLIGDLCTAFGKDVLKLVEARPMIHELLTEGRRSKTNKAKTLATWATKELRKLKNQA", "format": "binding", "details": "PreyGene KPNB1"}, "[12]": {"molecular_target": "SW480 colon carcinoma cells lysate proteins (Homo sapiens, UniProt P18085)", "sequence (P18085 whole entry)": "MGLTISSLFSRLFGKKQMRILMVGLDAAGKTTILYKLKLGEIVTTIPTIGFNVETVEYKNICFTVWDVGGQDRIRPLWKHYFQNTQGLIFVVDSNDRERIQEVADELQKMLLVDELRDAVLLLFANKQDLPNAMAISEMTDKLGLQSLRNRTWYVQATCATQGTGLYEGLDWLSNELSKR", "format": "binding", "details": "PreyGene ARF4"}, "[13]": {"test_system": "SW480 colon carcinoma cells lysate proteins", "format": "binding, human", "details": "PreyGene EIF3C, EIF3CL; SW480 cells"}, "[14]": {"molecular_target": "SW480 colon carcinoma cells lysate proteins (Homo sapiens, UniProt P53999)", "format": "binding", "details": "PreyGene SUB1"}},
  "data": [
    {"molecule": "C[C@H](Oc1cc(-c2cnn(C3CCNCC3)c2)cnc1N)c1c(Cl)ccc(F)c1Cl", "note": "[(5)-crizotinib]", "values": [
      {"measurement": "AvgP", "setting": "[1]", "value": 0.3871},
      {"measurement": "SC.Exp. 1-1", "setting": "[1]", "value": 12},
      {"measurement": "SC.Exp. 1-2", "setting": "[1]", "value": 11},
      {"measurement": "SC.Exp. 2-1", "setting": "[1]", "value": 1},
      {"measurement": "SC.Exp. 2-2", "setting": "[1]", "value": 0},
      {"measurement": "Sum (SC.Exp.)", "setting": "[1]", "value": 24},
      {"measurement": "AvgP", "setting": "[2]", "value": 0.2142},
      {"measurement": "SC.Exp. 1-1", "setting": "[2]", "value": 3},
      {"measurement": "SC.Exp. 1-2", "setting": "[2]", "value": 1},
      {"measurement": "SC.Exp. 2-1", "setting": "[2]", "value": 0},
      {"measurement": "SC.Exp. 2-2", "setting": "[2]", "value": 0},
      {"measurement": "Sum (SC.Exp.)", "setting": "[2]", "value": 4},
      {"measurement": "AvgP", "setting": "[3]", "value": 0.7764},
      {"measurement": "SC.Exp. 1-1", "setting": "[3]", "value": 2},
      {"measurement": "SC.Exp. 1-2", "setting": "[3]", "value": 2},
      {"measurement": "SC.Exp. 2-1", "setting": "[3]", "value": 1},
      {"measurement": "SC.Exp. 2-2", "setting": "[3]", "value": 2},
      {"measurement": "Sum (SC.Exp.)", "setting": "[3]", "value": 7},
      {"measurement": "AvgP", "setting": "[4]", "value": 0.3104},
      {"measurement": "SC.Exp. 1-1", "setting": "[4]", "value": 2},
      {"measurement": "SC.Exp. 1-2", "setting": "[4]", "value": 1},
      {"measurement": "SC.Exp. 2-1", "setting": "[4]", "value": 0},
      {"measurement": "SC.Exp. 2-2", "setting": "[4]", "value": 0},
      {"measurement": "Sum (SC.Exp.)", "setting": "[4]", "value": 3},
      {"measurement": "AvgP", "setting": "[5]", "value": 0.4488},
      {"measurement": "SC.Exp. 1-1", "setting": "[5]", "value": 7},
      {"measurement": "SC.Exp. 1-2", "setting": "[5]", "value": 5},
      {"measurement": "SC.Exp. 2-1", "setting": "[5]", "value": 0},
      {"measurement": "SC.Exp. 2-2", "setting": "[5]", "value": 0},
      {"measurement": "Sum (SC.Exp.)", "setting": "[5]", "value": 12},
      {"measurement": "AvgP", "setting": "[6]", "value": 0},
      {"measurement": "SC.Exp. 1-1", "setting": "[6]", "value": 1},
      {"measurement": "SC.Exp. 1-2", "setting": "[6]", "value": 1},
      {"measurement": "SC.Exp. 2-1", "setting": "[6]", "value": 0},
      {"measurement": "SC.Exp. 2-2", "setting": "[6]", "value": 0},
      {"measurement": "SC.Exp. Sum", "setting": "[6]", "value": 2},
      {"measurement": "AvgP", "setting": "[7]", "value": 0.3894},
      {"measurement": "SC.Exp. 1-1", "setting": "[7]", "value": 3},
      {"measurement": "SC.Exp. 1-2", "setting": "[7]", "value": 2},
      {"measurement": "SC.Exp. 2-1", "setting": "[7]", "value": 0},
      {"measurement": "SC.Exp. 2-2", "setting": "[7]", "value": 0},
      {"measurement": "Sum (SC.Exp.)", "setting": "[7]", "value": 5},
      {"measurement": "AvgP", "setting": "[8]", "value": 0.3864},
      {"measurement": "SC.Exp. 1-1", "setting": "[8]", "value": 2},
      {"measurement": "SC.Exp. 1-2", "setting": "[8]", "value": 3},
      {"measurement": "SC.Exp. 2-1", "setting": "[8]", "value": 0},
      {"measurement": "SC.Exp. 2-2", "setting": "[8]", "value": 0},
      {"measurement": "Sum (SC.Exp.)", "setting": "[8]", "value": 5},
      {"measurement": "AvgP", "setting": "[9]", "value": 0.3862},
      {"measurement": "SC.Exp. 1-1", "setting": "[9]", "value": 2},
      {"measurement": "SC.Exp. 1-2", "setting": "[9]", "value": 2},
      {"measurement": "SC.Exp. 2-1", "setting": "[9]", "value": 0},
      {"measurement": "SC.Exp. 2-2", "setting": "[9]", "value": 0},
      {"measurement": "Sum (SC.Exp.)", "setting": "[9]", "value": 4},
      {"measurement": "AvgP", "setting": "[10]", "value": 0.4697},
      {"measurement": "SC.Exp. 1-1", "setting": "[10]", "value": 7},
      {"measurement": "SC.Exp. 1-2", "setting": "[10]", "value": 5},
      {"measurement": "SC.Exp. 2-1", "setting": "[10]", "value": 0},
      {"measurement": "SC.Exp. 2-2", "setting": "[10]", "value": 0},
      {"measurement": "Sum (SC.Exp.)", "setting": "[10]", "value": 12},
      {"measurement": "AvgP", "setting": "[11]", "value": 0.5773},
      {"measurement": "SC.Exp. 1-1", "setting": "[11]", "value": 7},
      {"measurement": "SC.Exp. 1-2", "setting": "[11]", "value": 6},
      {"measurement": "SC.Exp. 2-1", "setting": "[11]", "value": 1},
      {"measurement": "SC.Exp. 2-2", "setting": "[11]", "value": 0},
      {"measurement": "Sum (SC.Exp.)", "setting": "[11]", "value": 14},
      {"measurement": "AvgP", "setting": "[12]", "value": 0.352},
      {"measurement": "SC.Exp. 1-1", "setting": "[12]", "value": 3},
      {"measurement": "SC.Exp. 1-2", "setting": "[12]", "value": 3},
      {"measurement": "SC.Exp. 2-1", "setting": "[12]", "value": 0},
      {"measurement": "SC.Exp. 2-2", "setting": "[12]", "value": 0},
      {"measurement": "Sum (SC.Exp.)", "setting": "[12]", "value": 6},
      {"measurement": "AvgP", "setting": "[13]", "value": 0},
      {"measurement": "SC.Exp. 1-1", "setting": "[13]", "value": 4},
      {"measurement": "SC.Exp. 1-2", "setting": "[13]", "value": 6},
      {"measurement": "SC.Exp. 2-1", "setting": "[13]", "value": 7},
      {"measurement": "SC.Exp. 2-2", "setting": "[13]", "value": 7},
      {"measurement": "SC.Exp. Sum", "setting": "[13]", "value": 24},
      {"measurement": "AvgP", "setting": "[14]", "value": 0.206},
      {"measurement": "SC.Exp. 1-1", "setting": "[14]", "value": 5},
      {"measurement": "SC.Exp. 1-2", "setting": "[14]", "value": 5},
      {"measurement": "SC.Exp. 2-1", "setting": "[14]", "value": 2},
      {"measurement": "SC.Exp. 2-2", "setting": "[14]", "value": 4},
      {"measurement": "Sum (SC.Exp.)", "setting": "[14]", "value": 16}
    ]}
  ]
}
